Drawing on PubChem BioAssay AID282 (DTP/NCI, 2004), this text covers T/C for 13 molecules.

“And” between values parts separate entries of the source, which are not always exact repeats. Equal entries are not always repeated. Toxic doses and inconclusive results are not listed.

The assay deals with BDF1 mice, L1210 terephthalanilide-resistant leukemia ip, survival T/C. The assay is described as follows: NCI In Vivo Anticancer Drug Screen. Data for tumor model L1210 Leukemia resistant to A Terephthalanilide; NSC 38280 (intraperitoneal) in B6D2F1 (BDF1) mice. Conditions: endpoint: mean survival time, higher = longer survival. The procedure: The antitumor activity of compounds was measured in mice bearing transplantable tumors. Survival or tumor size were measured and the results are expressed as the measurement made in the treated group (T) divided by the measurement made in the vehicle treated control group (C). The tumor model used in this assay is L1210 Leukemia resistant to A Terephthalanilide; NSC 38280 (intraperitoneal) in B6D2F1 (BDF1) mice

The mark [1] stands for this setting: dose: 62.5 mg/kg/injection, schedule: Q01DX010 (ip), vehicle: saline.
Where [2] appears, read: dose: 125.0 mg/kg/injection, schedule: Q01DX010 (ip), vehicle: saline.
The mark [3] stands for this setting: dose: 125.0 mg/kg/injection, schedule: Q01DX Z (ip), vehicle: saline.
Where [4] appears, read: dose: 250.0 mg/kg/injection, schedule: Q01DX010 (ip), vehicle: saline.
Where [5] appears, read: dose: 250.0 mg/kg/injection, schedule: Q01DX Z (ip), vehicle: saline.
[6] abbreviates: dose: 500.0 mg/kg/injection, schedule: Q01DX010 (ip), vehicle: saline.
Where [7] appears, read: dose: 500.0 mg/kg/injection, schedule: Q01DX Z (ip), vehicle: saline.
Setting [8] is: dose: 10.0 mg/kg/injection, schedule: Q01DX010 (ip), vehicle: saline.
The mark [9] stands for this setting: dose: 12.5 mg/kg/injection, schedule: Q01DX Z (ip), vehicle: carboxymethylcellulose (CMC).
Setting [10] is: dose: 20.0 mg/kg/injection, schedule: Q01DX010 (ip), vehicle: saline.
[11] abbreviates: dose: 25.0 mg/kg/injection, schedule: Q01DX Z (ip), vehicle: carboxymethylcellulose (CMC).
Setting [12] is: dose: 40.0 mg/kg/injection, schedule: Q01DX010 (ip), vehicle: saline.
Setting [13] is: dose: 100.0 mg/kg/injection, schedule: Q01DX Z (ip), vehicle: carboxymethylcellulose (CMC).
Setting [14] is: dose: 50.0 mg/kg/injection, schedule: Q01DX Z (ip), vehicle: carboxymethylcellulose (CMC).
Where [15] appears, read: dose: 200.0 mg/kg/injection, schedule: Q01DX Z (ip), vehicle: carboxymethylcellulose (CMC).
The mark [16] stands for this setting: dose: 37.5 mg/kg/injection, schedule: Q01DX Z (ip), vehicle: saline.
Setting [17] is: dose: 100.0 mg/kg/injection, schedule: Q01DX Z (ip), vehicle: saline.
Where [18] appears, read: dose: 2.5 mg/kg/injection, schedule: Q01DX Z (ip), vehicle: carboxymethylcellulose (CMC).

On to `O=CCC(O)C(O)C(O)CO` (stereo not drawn), for which the T/C runs as follows: under setting [1], 96 % of control and 104 % of control; (dose: 62.5 mg/kg/injection, schedule: Q01DX Z (ip), vehicle: saline) 112 % of control; under setting [2], 113 % of control; under setting [3], 108 % of control; under setting [4], 105 % of control and 113 % of control; under setting [5], 108 % of control. The T/C under setting [6] is 116 % of control and 118 % of control; the T/C under setting [7] was 116 % of control.
`O=c1[nH]cc(F)c(=O)[nH]1`: the T/C by setting is: (dose: 0.37 mg/kg/injection, schedule: Q01DX Z (ip), vehicle: carboxymethylcellulose (CMC)) 102 % of control; (dose: 0.75 mg/kg/injection, schedule: Q01DX Z (ip), vehicle: carboxymethylcellulose (CMC)) 114 % of control; (dose: 1.5 mg/kg/injection, schedule: Q01DX Z (ip), vehicle: carboxymethylcellulose (CMC)) 117 % of control; (dose: 5.0 mg/kg/injection, schedule: Q01DX010 (ip), vehicle: saline) 119 % of control; (dose: 6.25 mg/kg/injection, schedule: Q01DX Z (ip), vehicle: carboxymethylcellulose (CMC)) 175 % of control; under setting [8], 119 % of control. In addition, the T/C is 185 % of control under setting [9]; 181 % of control and 198 % of control under setting [10]; 227 % of control under setting [11]; 104 % of control and 110 % of control under setting [12]; 94 % of control and 102 % of control under setting [13].
As for `CS(=O)(=O)OCC(O)C(O)COS(C)(=O)=O` (stereo not drawn), the T/C by setting is: under setting [11], 107 % of control; under setting [14], 103 % of control; under setting [13], 103 % of control; (dose: 200.0 mg/kg/injection, schedule: Q01DX010 (ip), vehicle: saline) 101 % of control; under setting [15], 101 % of control; (dose: 250.0 mg/kg/injection, schedule: Q01DX Z (ip), vehicle: carboxymethylcellulose (CMC)) 100 % of control. Besides, the T/C was 111 % of control (dose: 375.0 mg/kg/injection, schedule: Q01DX Z (ip), vehicle: carboxymethylcellulose (CMC)); 97 % of control (dose: 400.0 mg/kg/injection, schedule: Q01DX010 (ip), vehicle: saline); 91 % of control (dose: 800.0 mg/kg/injection, schedule: Q01DX010 (ip), vehicle: saline).
`Cn1c(O)c(N=NC(N)=S)c2ccccc21`: the T/C by setting is: under setting [11], 93 % of control; under setting [14], 90 % of control; under setting [13], 87 % of control; under setting [15], 89 % of control.
In the case of `O=c1[nH]c(=O)n(C2CC(O)C(CO)O2)cc1F` (stereo not drawn), the T/C was 103 % of control under setting [8]; 118 % of control (dose: 12.5 mg/kg/injection, schedule: Q01DX Z (ip), vehicle: saline); 110 % of control and 119 % of control under setting [10]; 116 % of control (dose: 25.0 mg/kg/injection, schedule: Q01DX Z (ip), vehicle: saline); 122 % of control under setting [16]; 95 % of control under setting [12]. For the same molecule, the T/C by setting is: (dose: 50.0 mg/kg/injection, schedule: Q01DX Z (ip), vehicle: saline) 178 % of control; (dose: 80.0 mg/kg/injection, schedule: Q01DX010 (ip), vehicle: saline) 151 % of control; under setting [17], 183 % of control; under setting [7], 119 % of control.
As to `O=C(Nc1ccc(C2=NCCCN2)cc1)c1ccc(NC(=O)c2ccc(C3=NCCCN3)cc2)cc1`, the T/C (dose: 2.0 mg/kg/injection, schedule: Q01DX010 (ip), vehicle: other) is 110 % of control and 112 % of control; the T/C (dose: 4.0 mg/kg/injection, schedule: Q01DX010 (ip), vehicle: other) was 123 % of control; the T/C (dose: 8.0 mg/kg/injection, schedule: Q01DX010 (ip), vehicle: other) was 102 % of control.
`Nc1nc(=S)c2ncn(C3OC(CO)C(O)C3O)c2[nH]1` (stereo not drawn): the T/C is, setting by setting: (dose: 0.13 mg/kg/injection, schedule: Q01DX Z (ip), vehicle: carboxymethylcellulose (CMC)) 117 % of control; (dose: 0.3 mg/kg/injection, schedule: Q01DX Z (ip), vehicle: carboxymethylcellulose (CMC)) 120 % of control; (dose: 1.25 mg/kg/injection, schedule: Q01DX Z (ip), vehicle: carboxymethylcellulose (CMC)) 182 % of control; (dose: 2.0 mg/kg/injection, schedule: Q01DX010 (ip), vehicle: saline) 157 % of control and 179 % of control; under setting [18], 151 % of control; (dose: 4.0 mg/kg/injection, schedule: Q01DX010 (ip), vehicle: saline) 86 % of control and 110 % of control. The T/C reads like this: (dose: 5.0 mg/kg/injection, schedule: Q01DX Z (ip), vehicle: carboxymethylcellulose (CMC)) 155 % of control; (dose: 8.0 mg/kg/injection, schedule: Q01DX010 (ip), vehicle: saline) 98 % of control; (dose: 15.0 mg/kg/injection, schedule: Q01DX Z (ip), vehicle: carboxymethylcellulose (CMC)) 111 % of control; (dose: 20.0 mg/kg/injection, schedule: Q01DX Z (ip), vehicle: carboxymethylcellulose (CMC)) 102 % of control.
On to `O=c1[nH]c(=O)n(C2CC(O)C(CO)O2)cc1I` (stereo not drawn), for which the T/C (dose: 500.0 mg/kg/injection, schedule: Q01DX Z (ip), vehicle: carboxymethylcellulose (CMC)) was 151 % of control.
In the case of `CCCCNc1ncnc2c1cnn2C`, the T/C by setting is: (dose: 31.3 mg/kg/injection, schedule: Q01DX010 (ip), vehicle: saline) 100 % of control; under setting [1], 105 % of control and 108 % of control; under setting [2], 89 % of control.
Turning to `CC(=O)O[C@]1(C(C)=O)CC[C@H]2[C@@H]3C[C@H](C)C4=CC(=O)C=C[C@]4(C)[C@@]3(F)[C@@H](O)C[C@@]21C`, the T/C is 102 % of control (dose: 12.5 mg/kg/injection, schedule: Q01DX010 (sc), vehicle: steriod suspending solution); 98 % of control (dose: 25.0 mg/kg/injection, schedule: Q01DX010 (sc), vehicle: steriod suspending solution); 98 % of control (dose: 50.0 mg/kg/injection, schedule: Q01DX010 (sc), vehicle: steriod suspending solution); 102 % of control (dose: 50.0 mg/kg/injection, schedule: Q01DX Z (sc), vehicle: steriod suspending solution); 104 % of control (dose: 75.0 mg/kg/injection, schedule: Q01DX Z (sc), vehicle: steriod suspending solution); 91 % of control (dose: 100.0 mg/kg/injection, schedule: Q01DX010 (sc), vehicle: steriod suspending solution). Besides, the T/C by setting is: (dose: 100.0 mg/kg/injection, schedule: Q01DX Z (sc), vehicle: steriod suspending solution) 102 % of control; (dose: 150.0 mg/kg/injection, schedule: Q01DX Z (sc), vehicle: steriod suspending solution) 102 % of control.
Turning to `CC1CCOS(=O)O1` (stereo not drawn), the T/C by setting is: under setting [8], 95 % of control; under setting [10], 86 % of control; under setting [16], 112 % of control; under setting [12], 87 % of control; (dose: 75.0 mg/kg/injection, schedule: Q01DX Z (ip), vehicle: saline) 120 % of control; under setting [17], 103 % of control. In addition, for the setting “dose: 150.0 mg/kg/injection, schedule: Q01DX Z (ip), vehicle: saline”, the T/C is 87 % of control.
On to `S=c1nc[nH]c2nc[nH]c12`, for which the T/C by setting is: under setting [18], 120 % of control; (dose: 7.5 mg/kg/injection, schedule: Q01DX Z (ip), vehicle: carboxymethylcellulose (CMC)) 165 % of control; (dose: 10.0 mg/kg/injection, schedule: Q01DX Z (ip), vehicle: carboxymethylcellulose (CMC)) 172 % of control; under setting [9], 156 % of control; under setting [11], 152 % of control; (dose: 62.5 mg/kg/injection, schedule: Q01DX Z (ip), vehicle: carboxymethylcellulose (CMC)) 120 % of control. Under setting [13], the T/C is 107 % of control.
On to `O=CN(O)CC(=O)O`, for which the T/C is 93 % of control under setting [2]; 100 % of control under setting [3]; 93 % of control under setting [4]; 91 % of control under setting [5]; 101 % of control (dose: 375.0 mg/kg/injection, schedule: Q01DX Z (ip), vehicle: saline); 101 % of control under setting [6]. The T/C under setting [7] was 97 % of control.
